Data from patent publication US8993574B2, “Pyrrole antifungal agents” (F2G Ltd, priority 2008, dated 2015).

Key:
[1] = tested on: Aspergillus and other filamentous fungi; assay: Activity in vitro against Aspergillus and other filamentous fungi; assay type: cell-based
[2] = tested on: Aspergillus fumigatus AF210; assay: Checkerboard titration, fractional inhibitory concentration (FIC), RPMI media; assay type: cell-based; details: compound A in combination with caspofungin as compound B
Description: In the checkerboard titration doubling dilutions of compound A (e.g. an antifungal pyrrole compound as defined earlier) are prepared in every row across a microtitre plate and doubling dilutions of compound B (e.g. a second antifungal agent as defined earlier) are prepared in every column down a microtitre plate. The activity of the two compounds in combination can be compared with the activity of each compound alone. In such experiments a narrow range of dilutions can be tested for each compound around the minimum inhibitory concentration (MIC).
As an example, a stock solution of compound A (e.g. 5 mg/ml) can be prepared in a suitable solvent such as DMSO. A stock solution of compound B (e.g. caspofungin) is also prepared (e.g. 2 mg/ml). The stock solution of compound A is diluted (e.g. at a concentration of 1:2000 in water) to 2.5 μg/ml. […]
To determine the combined effect of the compounds the Fractional inhibitory concentration FIC is determined, where FIC is defined as: FIC=FICA+FICB=CA^comb/MICA^alone+CB^comb/MICB^alone where MICA^alone and MICB^alone are the MICs of compounds A and B when acting alone and CA^comb and CB^comb are concentrations of compounds A and B at the isoeffective combinations, respectively. […]

[3] = Oral bio-availability and tissue distribution; details: in vivo
[4] = tested on: Aspergillus terreus AT4; assay: MIC, YAG medium; assay type: cell-based; details: Aspergillus terreus, 24 h at 35° C, MIC banded into grades, read-out: MIC grade, A. terreus
How it was run: (§1)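 MICs (mg/L) derive from the lowest compound concentration suppressing spore outgrowth by >70% against a drug-free well, by OD 485 nm. Conditions: YAG medium, 1−2×10^4 cfu/mL, 24 h, 35° C, two-fold dilutions from 50 mg/L.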

[5] = tested on: Aspergillus flavus; assay: MIC, YAG medium; assay type: cell-based; details: Aspergillus flavus, 24 h, 24 h at 35° C, MIC banded into grades, read-out: MIC grade, A. flavus
How it was run: as §1

[6] = tested on: Aspergillus fumigatus AF210; assay: MIC, YAG medium; assay type: cell-based; details: Aspergillus fumigatus, 24 h at 35° C, MIC banded into grades, read-out: MIC grade, A. fumigatus 210
How it was run: as §1

[7] = tested on: Aspergillus niger; assay: MIC, YAG medium; assay type: cell-based; details: Aspergillus niger, 24 h at 35° C, MIC banded into grades, read-out: MIC grade, A. niger
How it was run: as §1

[8] = tested on: Aspergillus terreus AT49; assay: MIC, YAG medium; assay type: cell-based; details: Aspergillus terreus, 24 h at 35° C, MIC banded into grades, read-out: MIC grade, A. terreus 49
How it was run: as §1

Cc1cc(C)nc(N2CCN(c3ccc(NC(=O)C(=O)c4c(-c5ccccc5)cc(C)n4C)cc3)CC2)c1 [Example 1, 2-(1,5-Dimethyl-3-phenyl-1H-pyrrol-2-yl)-N-{4-[4-(4,6-dimethyl-pyridin-2-yl)-piperazin-1-yl]-phenyl}-2-oxo-acetamide]
activity in vitro against Aspergillus and other filamentous fungi [1]: excellent activity
FIC (fractional inhibitory concentration) [2]: 0.67
tissue distribution [3]: good
oral bio-availability ([3]; po): good
MIC [4]: < 1 mg/L
MIC [5]: < 1 mg/L
MIC [6]: < 1 mg/L
MIC [7]: < 1 mg/L
MIC [8]: < 1 mg/L
